Reference: article PMC5034429, “Enantioselective cascade biocatalysis for deracemization of 2-hydroxy acids using a three-enzyme system” (Microbial Cell Factories, 2016)

Target: T1, (S)-2-HADH from P. aeruginosa NUST (Pseudomonas aeruginosa, UniProt R9RKA7)
T1 construct: synthetic gene in pET28b, E. coli BL21(DE3); resting cells; ~42 kDa on SDS-PAGE; FMN flavoprotein; strain also misprinted NSUT
T1 sequence (R9RKA7 1-393): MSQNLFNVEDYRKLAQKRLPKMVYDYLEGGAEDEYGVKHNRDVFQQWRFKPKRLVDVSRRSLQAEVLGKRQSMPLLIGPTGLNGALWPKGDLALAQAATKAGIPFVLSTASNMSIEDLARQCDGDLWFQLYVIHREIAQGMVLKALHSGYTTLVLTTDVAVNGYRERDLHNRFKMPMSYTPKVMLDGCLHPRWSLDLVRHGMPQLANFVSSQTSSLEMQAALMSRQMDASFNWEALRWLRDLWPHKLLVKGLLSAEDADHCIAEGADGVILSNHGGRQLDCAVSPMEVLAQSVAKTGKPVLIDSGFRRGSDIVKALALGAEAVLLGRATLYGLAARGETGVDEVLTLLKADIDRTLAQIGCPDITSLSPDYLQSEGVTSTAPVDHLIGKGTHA
Assay: apoenzyme reactivation
Format: biochemical
Details: flavin removal, then addition of FMN

Q: How did the apoenzyme reactivation turn out when `Cc1cc2nc3c(=O)[nH]c(=O)nc-3n(C[C@H](O)[C@H](O)[C@H](O)COP(=O)(O)O)c2cc1C` [FMN] was run?
A: The activity of the apoenzyme was partly reactivated by the addition of FMN
